{"source": "patent US11925632B2", "about": "“Isoquinoline derivatives for use in treating GLUT1 deficiency syndrome” (GLIAPHARM SA, priority 2019, dated 2024)", "key": {"C57Bl/6J wild-type mice": {"system": "C57Bl/6J wild-type mice", "test": "In vivo pharmacodynamics, lactate biosensors (cerebral extracellular lactate)", "set-up": "species or system mouse", "conditions": "3 h recording, AUC ratio vs vehicle", "description": "For pharmacodynamics (FIG. 5) and cognition (FIG. 7) experiments, adult male C57Bl/6J wild-type mice weighting 18-28 g (8 weeks of age) were used (Charles River). For ALS mouse models (FIG. 6), G93A SOD1 transgenic male and female mice on B6.SJL1-Gur/J background were used (Jackson Laboratory).\nAnimals were housed in groups of 3-5 in polypropylene cages (30×40×15 cm) with wire mesh top in a temperature (22±2° C.) and humidity (55±15%) controlled environment on a 12 hour light cycle (07.00-19.00 h lights on), except after surgeries when animal were housed individually. […]\nCerebral extracellular levels of lactate were monitored in vivo using lactate biosensors (Pinnacle Technology), according to the manufacturer's instructions. […] After surgery, mice were monitored closely and received analgesic treatment for at least 4 days. […] Concentrations of cerebral extracellular lactate were calculated from lactate probe electric signals using post-calibration values. […] Area Under the Curve (AUC) of lactate concentration curves were calculated using Graphpad Prism and the ratio of AUC after drug over Vehicle administration was calculated. Extracellular concentrations of L-lactate were measured in real time in freely moving animals for 3 hours after administration of Vehicle or Compound (1) (FIG. 5)."}, "wild-type (WT) mice": {"system": "wild-type (WT) mice", "test": "Cerebral extracellular lactate and glucose biosensors, wild-type littermates", "type": "in vivo, mouse", "conditions": "medial prefrontal cortex, 10 mg/kg and/or 100 mg/kg oral, AUC ratio vs vehicle", "excerpt": "(§1) Transgenic mice on 129/SvJ genetic background in which GLUT1 has been knocked-down (GLUT1-DS mice) were used (Wang et al., […], Human Molecular Genetics, 15(7)). Mating colonies were composed of wild-type female mice and GLUT1-DS male mice, or GLUT1-DS female mice and wild-type male mice. F1 pups were genotyped after ear punching at weaning using PCR to determine genotype. Mice of 2 to 3 months of age were used.\n(§2) Cerebral extracellular levels of lactate and glucose were monitored in vivo in GLUT1-DS transgenic male mice and wild-type (WT) male littermates using lactate and glucose biosensors (Pinnacle Technology), according to the manufacturer's instructions. […] After surgery, mice were monitored closely and received analgesic treatment for at least 4 days. After mice had fully recovered from surgery, compounds of the invention of vehicle were administered per os as previously described and cerebral levels of extracellular lactate or glucose were dynamically recorded for 6 hours using lactate or glucose biosensors, respectively. […] Concentration of cerebral extracellular lactate or glucose was calculated from lactate or glucose probe electric signals, respectively, using post-calibration values, as described by manufacturer. […]"}, "[1]": {"system": "astrocytes transfected with GLUT1 siRNA", "test": "2-deoxyglucose (2DG) uptake, GLUT1 siRNA astrocytes (cellular model of GLUT1-DS)", "type": "cell-based, mouse", "conditions": "30 min treatment, 1 or 10 μM, vs vehicle", "description": "Astrocytes grown on 12-well plates and transfected with either scramble siRNA or GLUT1 siRNA were used. 1 day after having replaced transfection medium (DIV13), 2DG uptake was measured after treatment for 30 min with Vehicle (0.1% DMSO) or with the compound of the invention (1) (concentrations of 1 or 10 μM). During treatment, 1 mM 2DG was added to the medium for assessment of 2DG uptake. At the end of the stimulation, medium was removed and replaced with 150 μl NaOH 0.1M, and stored at −20° C. After thawing, cells were collected using cell scraper and heated for 40 min at 85° C. Then, 150 ul HCl 0.1M and TAE buffer 200 mM was added to each condition. 20 μl were added to a transparent 96-well plate and 2DG was quantified by addition of a reaction solution containing 50 mM TAE, 50 mM KCl, 0.02% BSA, 0.1 mM NADP, 0.2 U/ml diaphorase, 2 mM resazurin and 20 U/ml glucose-6-phosphate dehydrogenase. Concentration of 2DG in samples were calculated by comparison with standard curve of deoxy-glucose-6-phosphate ranging from 0 to 1 nmoles.\nScramble and GLUT1 siRNA sequences were as following:\nCells were grown in transfection medium for 3 days at 37° C. in a humidified atmosphere containing 5% CO2/95% air. […]\n2DG uptake after treatment with Veh or compound of the invention (1) was measured in astrocytes transfected with scramble siRNA or GLUT1 siRNA (FIG. 4A)."}, "GLUT1-DS mice": {"system": "GLUT1-DS mice", "test": "Cerebral extracellular lactate and glucose biosensors, GLUT1-DS transgenic mice", "type": "in vivo, mouse", "conditions": "medial prefrontal cortex, 10 mg/kg and/or 100 mg/kg oral, AUC ratio vs vehicle", "excerpt": "as §1, §2"}}, "note": "Entries after “also recorded” stand apart in the source; their conditions may differ.", "data": [{"smiles": "COc1cc2ccnc(Nc3ccc(OC(F)(F)F)cc3)c2cc1OC", "note": "[Example 1, 6,7-dimethoxy-N-(4-(trifluoromethoxy)phenyl)isoquinolin-1-amine]", "values": [{"measurement": "Extracellular lactate levels in the brain", "setting": "C57Bl/6J wild-type mice; 10 mg/kg per os", "value": "significantly increases extracellular lactate levels"}, {"measurement": "Extracellular lactate levels in the brain", "setting": "C57Bl/6J wild-type mice; 100 mg/kg per os", "value": "significantly increases extracellular lactate levels"}, {"measurement": "Extracellular glucose levels in the brain", "setting": "wild-type (WT) mice", "value": "significantly increases"}, {"measurement": "Extracellular lactate levels in the brain", "setting": "wild-type (WT) mice", "value": "significantly increases"}, {"measurement": "2DG uptake", "setting": "[1]", "value": "restored; also recorded: significantly enhances 2DG uptake"}, {"measurement": "Extracellular glucose levels in the brain", "setting": "GLUT1-DS mice", "value": "significantly increases"}, {"measurement": "Extracellular lactate levels in the brain", "setting": "GLUT1-DS mice", "value": "significantly increases"}]}]}
